Paper PMC9774391 (ACS Omega, 2022)

Key:
[1] = target: T1, MAO-B (Homo sapiens, UniProt P27338); test: In vitro MAO-B inhibition assay (fluorometric); type: biochemical; conditions: for inhibition at 1000 µM: 10^–3 M; for inhibition at 100 µM: 10^–4 M
T1 sequence (P27338 1-520): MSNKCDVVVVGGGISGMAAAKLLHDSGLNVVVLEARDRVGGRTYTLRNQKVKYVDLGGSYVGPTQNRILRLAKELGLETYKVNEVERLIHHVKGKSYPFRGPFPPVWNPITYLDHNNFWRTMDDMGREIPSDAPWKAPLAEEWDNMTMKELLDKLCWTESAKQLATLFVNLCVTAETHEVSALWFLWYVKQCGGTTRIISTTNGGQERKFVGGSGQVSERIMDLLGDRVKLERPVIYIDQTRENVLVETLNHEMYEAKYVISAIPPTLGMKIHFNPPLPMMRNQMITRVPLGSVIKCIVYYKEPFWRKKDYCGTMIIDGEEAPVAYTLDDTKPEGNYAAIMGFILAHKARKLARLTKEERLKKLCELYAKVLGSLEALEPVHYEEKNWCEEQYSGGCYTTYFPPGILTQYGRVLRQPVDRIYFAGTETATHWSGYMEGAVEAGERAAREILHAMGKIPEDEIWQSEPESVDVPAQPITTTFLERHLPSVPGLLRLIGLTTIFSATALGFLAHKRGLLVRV

[2] = target: T2, MAO-A (Homo sapiens, UniProt P21397); test: In vitro MAO-A inhibition assay (fluorometric); type: biochemical; conditions: for inhibition at 1000 µM: 10^–3 M; for inhibition at 100 µM: 10^–4 M
T2 sequence (P21397 1-527): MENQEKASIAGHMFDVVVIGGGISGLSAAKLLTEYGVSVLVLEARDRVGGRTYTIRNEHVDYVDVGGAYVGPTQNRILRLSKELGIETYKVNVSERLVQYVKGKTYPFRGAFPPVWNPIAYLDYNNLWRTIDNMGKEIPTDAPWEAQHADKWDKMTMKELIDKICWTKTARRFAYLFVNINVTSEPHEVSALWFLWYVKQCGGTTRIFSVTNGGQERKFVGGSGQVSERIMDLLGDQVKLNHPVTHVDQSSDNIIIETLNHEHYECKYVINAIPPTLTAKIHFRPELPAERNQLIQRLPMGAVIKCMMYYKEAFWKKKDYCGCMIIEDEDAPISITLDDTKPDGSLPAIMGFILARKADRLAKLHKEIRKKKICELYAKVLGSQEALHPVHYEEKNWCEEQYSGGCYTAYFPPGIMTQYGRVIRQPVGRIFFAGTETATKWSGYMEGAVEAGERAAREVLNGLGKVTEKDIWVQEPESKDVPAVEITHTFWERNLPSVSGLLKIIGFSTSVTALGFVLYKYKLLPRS

[3] = target: BChE (Homo sapiens, UniProt P06276); test: biochemical; conditions: for inhibition at 1000 µM: 10^–3 M; for inhibition at 100 µM: 10^–4 M
Procedure: (§1) According to the modified Ellman approach outlined in our team’s earlier work, the AChE and BChE inhibitory activities of the obtained compounds were evaluated.[18]−[21]

[4] = target: AChE (Homo sapiens, UniProt P22303); test: biochemical; conditions: for inhibition at 1000 µM: 10^–3 M; for inhibition at 100 µM: 10^–4 M; for inhibition at 10 µM: 10^–5 M; for inhibition at 1 µM: 10^–6 M; for inhibition at 0.1 µM: 10^–7 M; for inhibition at 0.01 µM: 10^–8 M; for inhibition at 0.001 µM: 10^–9 M
Procedure: as §1

[5] = Cytotoxicity test (MTT); type: cell-based; conditions: NIH/3T3 mouse embryonic fibroblast cells (ATCC CRL-1658), NIH/3T3 mouse fibroblast healthy cell line
Procedure: The NIH/3T3 cells were incubated according to the manufacturer’s recommendations. In 96-well plates, NIH/3T3 cells were seeded at a density of 1 × 10^4 cells per well. The MTT test was conducted in line with the previously mentioned standards.[19],[22],[23],[28],[30]

[6] = target: T3, Beta Amyloid 1–42 (Aβ42) (Homo sapiens, UniProt P05067); test: Beta Amyloid 1–42 (Aβ42) inhibitor screening assay; type: biochemical; conditions: 10^–4 M; read-out: % β-amyloid plaque inhibition
T3 construct: The Beta Amyloid 1–42 (Aβ42) Ligand Screening Assay kit; purchased BioVision, Milpitas, CA
Source text: The Beta Amyloid 1–42 (Aβ42) Ligand Screening Assay kit (BioVision, Milpitas, CA) technique based on the fluorometric approach served as the basis for the experimental process.[21],[28],[29]

AChE, sequence (P22303 32-614): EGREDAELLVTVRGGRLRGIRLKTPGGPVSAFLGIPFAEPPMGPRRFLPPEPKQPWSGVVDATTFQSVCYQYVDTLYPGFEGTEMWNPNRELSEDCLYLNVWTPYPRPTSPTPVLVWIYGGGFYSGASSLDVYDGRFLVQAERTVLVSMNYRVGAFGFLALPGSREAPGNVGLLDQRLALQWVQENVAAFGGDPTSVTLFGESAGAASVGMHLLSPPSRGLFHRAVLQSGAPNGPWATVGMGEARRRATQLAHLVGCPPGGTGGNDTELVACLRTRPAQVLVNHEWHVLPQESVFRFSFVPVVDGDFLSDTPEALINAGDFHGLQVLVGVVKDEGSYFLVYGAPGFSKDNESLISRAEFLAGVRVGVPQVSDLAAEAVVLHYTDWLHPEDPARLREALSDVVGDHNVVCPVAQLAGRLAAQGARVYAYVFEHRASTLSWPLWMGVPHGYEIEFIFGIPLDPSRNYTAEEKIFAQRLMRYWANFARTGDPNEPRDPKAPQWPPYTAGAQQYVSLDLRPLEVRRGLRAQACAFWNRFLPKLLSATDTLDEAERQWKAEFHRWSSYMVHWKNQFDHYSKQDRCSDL
BChE, sequence (P06276 29-602): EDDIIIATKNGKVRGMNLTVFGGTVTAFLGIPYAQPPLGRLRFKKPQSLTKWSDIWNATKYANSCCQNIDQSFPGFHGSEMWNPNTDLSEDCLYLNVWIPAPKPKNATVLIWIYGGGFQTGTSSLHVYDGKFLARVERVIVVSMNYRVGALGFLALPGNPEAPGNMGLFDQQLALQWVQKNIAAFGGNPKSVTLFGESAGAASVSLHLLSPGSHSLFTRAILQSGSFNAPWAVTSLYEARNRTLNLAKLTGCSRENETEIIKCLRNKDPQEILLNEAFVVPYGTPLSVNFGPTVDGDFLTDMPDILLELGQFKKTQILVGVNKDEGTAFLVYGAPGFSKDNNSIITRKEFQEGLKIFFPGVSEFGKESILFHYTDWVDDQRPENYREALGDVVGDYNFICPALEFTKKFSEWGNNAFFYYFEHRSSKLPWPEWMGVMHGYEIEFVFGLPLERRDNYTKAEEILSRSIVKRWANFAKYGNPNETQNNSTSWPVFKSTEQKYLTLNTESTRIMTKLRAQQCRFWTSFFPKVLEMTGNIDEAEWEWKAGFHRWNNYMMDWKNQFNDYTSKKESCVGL
T3 sequence (P05067 672-713 limits assumed): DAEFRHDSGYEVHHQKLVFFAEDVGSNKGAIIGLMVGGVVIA

SMILES | inhibition at 1000 µM [1] | inhibition at 100 µM [1] | inhibition at 1000 µM [2] | inhibition at 100 µM [2] | inhibition at 1000 µM [3] | inhibition at 100 µM [3] | inhibition at 1000 µM [4] | inhibition at 100 µM [4] | IC50 [5] | inhibition at 100 µM [6] | IC50 [4] | inhibition at 10 µM [4] | inhibition at 1 µM [4] | inhibition at 0.1 µM [4] | inhibition at 0.01 µM [4] | inhibition at 0.001 µM [4]
COCCN1CCN(CC(=O)Nc2ccc(/C=C3\Cc4cc(OC)ccc4C3=O)cc2)CC1 [D13] | 84.6 ± 1.11% | 44.6 ± 0.557% | 82.7 ± 1.21% | 35.5 ± 0.623% | 90.1 ± 1.46% | 23.9 ± 0.934% | 71.2 ± 1.07% | 43 ± 0.998% |  |  |  |  |  |  |  | 
COCCN1CCN(CC(=O)Nc2ccc(/C=C3\Cc4ccc(OC)cc4C3=O)cc2)CC1 [D14] | 69 ± 0.847% | 39.3 ± 0.652% | 48.5 ± 0.749% | 27.95 ± 0.243% | 73.7 ± 1.51% | 33 ± 0.721% | 44.2 ± 0.999% | 36.3 ± 0.664% |  |  |  |  |  |  |  | 
COCCN1CCN(CC(=O)Nc2ccc(/C=C3\Cc4cc(OC)c(OC)cc4C3=O)cc2)CC1 [D15] | 80.2 ± 1.46% | 40.1 ± 0.508% | 70.52 ± 0.536% | 20.3 ± 0.412% | 94.6 ± 1.6% | 43.5 ± 0.966% | 91.6 ± 2.56% | 43.4 ± 0.877% |  |  |  |  |  |  |  | 
COc1ccc2c(c1)C/C(=C\c1ccc(NC(=O)CN3CCN(CCO)CC3)cc1)C2=O [D16] | 75.6 ± 1.1% | 42.9 ± 0.629% | 65.8 ± 0.779% | 22 ± 0.233% | 87.63 ± 0.618% | 23.6 ± 0.448% | 88 ± 1.09% | 42.6 ± 1.85% |  |  |  |  |  |  |  | 
COc1ccc2c(c1)C(=O)/C(=C/c1ccc(NC(=O)CN3CCN(CCO)CC3)cc1)C2 [D17] | 84.6 ± 1.04% | 45.4 ± 0.669% | 82.45 ± 0.529% | 34.4 ± 0.508% | 75.532 ± 0.061% | 21.1 ± 0.804% | 73.7 ± 1.06% | 48.1 ± 0.669% |  |  |  |  |  |  |  | 
COc1cc2c(cc1OC)C(=O)/C(=C/c1ccc(NC(=O)CN3CCN(CCO)CC3)cc1)C2 [D18] | 75.6 ± 1.2% | 47.34 ± 0.457% | 63.8 ± 0.683% | 28.39 ± 0.097% | 99.21 ± 0.887% | 41.8 ± 0.766% | 94.7 ± 1.97% | 45.3 ± 1.01% |  |  |  |  |  |  |  | 
COc1ccc2c(c1)C(=O)/C(=C/c1ccc(NC(=O)CN3CCN(CCCO)CC3)cc1)C2 [D20] | 83.6 ± 1.04% | 41.6 ± 0.508% | 81.86 ± 0.243% | 43.29 ± 0.429% | 82.6 ± 1.05% | 20.1 ± 0.277% | 98.3 ± 1.11% | 91.1 ± 1.36% | 20 ± 1 µM | > 50% | 0.0311 ± 0.0011 µM | 86.3 ± 1.25% | 77.2 ± 0.975% | 68.26 ± 0.633% | 40.2 ± 0.528% | 21.1 ± 0.429%
COc1cc2c(cc1OC)C(=O)/C(=C/c1ccc(NC(=O)CN3CCN(CCCO)CC3)cc1)C2 [D21] | 93.5 ± 1.38% | 46.2 ± 0.587% | 91.2 ± 1.21% | 26.9 ± 0.541% | 99.7 ± 2.82% | 40.6 ± 0.978% | 95.7 ± 1.2% | 91.7 ± 1.47% | 39.5 ± 1.82 µM | > 50% | 0.0292 ± 0.0008 µM | 87.3 ± 1.3% | 81.8 ± 1.1% | 70.6 ± 1% | 38.3 ± 0.678% | 19.3 ± 0.593%
